The results in this text go back to BindingDB's records for doi:10.1186/2191-2858-2-21 (University of The West Indies, 2012).

For one experiment, the target named is Cytochrome P450 2C19 (Homo sapiens, UniProt P33261). Kind of experiment: CYP Inhibition Assay. As to the method:
(§1) The test compounds were evaluated for their ability to inhibit the catlytic activity of human CYP1 enzymes by means of high throughput fluorometric detection assay conducted in 96-well microtitre plates.

The target in the next experiment is T1, Cytochrome P450 1A1 (Homo sapiens, UniProt P04798).
T1 sequence (P04798 whole entry): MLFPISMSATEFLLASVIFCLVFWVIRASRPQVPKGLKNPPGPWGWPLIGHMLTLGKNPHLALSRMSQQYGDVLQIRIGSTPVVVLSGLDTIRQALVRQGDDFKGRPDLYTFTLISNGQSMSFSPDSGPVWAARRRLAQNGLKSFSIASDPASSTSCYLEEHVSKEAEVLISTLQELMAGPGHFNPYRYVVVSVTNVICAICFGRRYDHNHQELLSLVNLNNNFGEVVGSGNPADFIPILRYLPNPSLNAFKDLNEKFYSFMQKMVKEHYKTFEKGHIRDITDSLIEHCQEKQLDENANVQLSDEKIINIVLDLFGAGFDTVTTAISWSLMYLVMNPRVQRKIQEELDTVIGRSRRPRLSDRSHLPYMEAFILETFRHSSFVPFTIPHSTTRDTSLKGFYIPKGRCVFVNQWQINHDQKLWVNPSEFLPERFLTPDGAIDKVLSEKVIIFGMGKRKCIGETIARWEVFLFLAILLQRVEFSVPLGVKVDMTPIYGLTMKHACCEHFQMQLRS
Put plainly: CYP Inhibition Assay. The procedure:
as §1

Sequence of Cytochrome P450 2C19 (P33261 whole entry): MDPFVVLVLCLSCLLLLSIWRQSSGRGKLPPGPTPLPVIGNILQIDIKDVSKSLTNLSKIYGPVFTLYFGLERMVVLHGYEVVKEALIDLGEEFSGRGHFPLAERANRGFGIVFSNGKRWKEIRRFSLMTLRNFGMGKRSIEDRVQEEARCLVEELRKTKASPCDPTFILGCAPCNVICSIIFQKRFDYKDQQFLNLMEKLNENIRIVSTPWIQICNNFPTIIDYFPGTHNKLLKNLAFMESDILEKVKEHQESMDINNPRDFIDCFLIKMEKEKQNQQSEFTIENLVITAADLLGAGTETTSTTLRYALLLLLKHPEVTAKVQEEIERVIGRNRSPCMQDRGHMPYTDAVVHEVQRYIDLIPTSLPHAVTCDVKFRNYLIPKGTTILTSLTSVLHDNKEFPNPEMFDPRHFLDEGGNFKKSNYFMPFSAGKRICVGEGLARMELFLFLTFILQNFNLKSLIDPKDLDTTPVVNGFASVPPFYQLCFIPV

Regarding `CC(C)(O)CCCC1(C)CC(=O)c2cc(O)c(Br)cc2O1` (configuration not stated) [PBQ1], the IC50 on Cytochrome P450 2C19 is 80 nM; on Cytochrome P450 1A1 it was 390 nM.
